From US20260337229A1 (Seattle Children's Hospital (d/b/a Seattle Children's …, priority 2022, published 2026)
Read-outs that look alike come from different tables or passages of the source. Starred links: 1 amine or outer side, 2 acyl side, 3 side chain; linkers in the order of their positions; H or OH if unused. Positions of bridges follow the written chain, without caps; N, C: chain ends. Non-standard residues stand in square brackets, D forms with d. Residues, ends and D or L forms follow the SMILES beside them. Groups on a side chain read outwards from the residue. *: point of attachment. PEG8 = NCCOCCOCCOCCOCCOCCOCCOCCOCCC(=O)O; Palmitoyl = CCCCCCCCCCCCCCCC(=O)*; hCys = N[C@@H](CCS)C(=O)O; X1 = O=C(CC[*:2])[*:1]

Experiments:
[1] = biological target: T1, hOXTR (Homo sapiens, UniProt P30559); assay: Ca2+ flux fluorometric imaging plate reader assay at OXTR; type: cell-based
T1 construct: expressed in transfected cells; host or cells: CHO (hOTR NFAT bLac)
T1 sequence (P30559 1-389): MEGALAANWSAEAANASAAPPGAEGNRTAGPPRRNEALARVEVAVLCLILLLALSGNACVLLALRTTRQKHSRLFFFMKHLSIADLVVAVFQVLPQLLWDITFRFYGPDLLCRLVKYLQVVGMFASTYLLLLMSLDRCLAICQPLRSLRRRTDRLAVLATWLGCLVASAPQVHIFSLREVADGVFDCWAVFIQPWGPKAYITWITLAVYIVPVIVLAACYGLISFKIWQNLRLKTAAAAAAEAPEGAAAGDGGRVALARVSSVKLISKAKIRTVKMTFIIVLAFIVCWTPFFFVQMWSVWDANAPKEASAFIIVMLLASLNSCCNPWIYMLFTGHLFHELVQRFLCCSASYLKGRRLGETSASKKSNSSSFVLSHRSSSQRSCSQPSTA
Method: In a typical experimental protocol, stably transfected Chinese hamster ovary (CHO) hOTR NFAT bLac cells were plated at a density of 10,000 cells/well in a 384-well plate in growth medium (Dulbecco's modified Eagle's medium+Glutamax (Thermo Fisher Scientific, Waltham, MA), 10% dialyzed fetal bovine serum). The next day calcium-sensitive, fluo-4 dye (Invitrogen, Carlsbad, CA) and probenecid (Invitrogen; 2.5 mM) was dissolved in 20 ml warm dye loading buffer (Hanks' balanced salt solution with calcium and magnesium, 20 mM Hepes, pH 7.4) and added to each well. Plates were incubated for 60-120 minutes in a 37° C. cell incubator to allow cells to uptake the dye. […] After dye-loading, the cell plates were placed on the fluorometric imaging plate reader. A total of […] of test compound was added to the […] of dye on the cells, and intracellular Ca^2+ was monitored for 90 seconds. Intracellular Ca^2+ concentrations were calculated as the maximum increase over basal levels. Responses were normalized to control responses. Data were analyzed by curve fitting.

[2] = 22-day long-term study in DIO rats (body weight, food and water intake); type: in vivo, male Sprague Dawley rats; details: in words
Description: For studies utilizing a DIO rat model, male Sprague Dawley rats (CD-IGS rats, strain 001; approximately 4 weeks of age; 51-75 g) purchased from Charles River Laboratories (Wilmington, MA, USA). These rats were fed a diet of 60% calories from fat (Formula: D12492; Research Diets, Inc., New Brunswick, NJ, USA; 5.21 kcal/g) for 4.5 to 6 months prior to the start of the study to induce obesity. For studies utilizing lean rats, male Sprague Dawley rats (CD-IGS rats, strain 001; 226-250 g) purchased from Charles River Laboratories (Wilmington, MA, USA). All rats had ad libitum access to food and water and were kept on a 12 h light/12 h dark cycle. Animals were individually housed in a temperature (22±1° C.) and humidity (57±4%) controlled room. All body weight measurements were taken just prior to the start of the dark cycle.
(§1) Male Sprague Dawley rats were fed 60% HF diet (D12492; Research Diets, Inc; New Brunswick, NJ; 5.21 kcal/g) for 16 weeks prior to the start of the study. Rats were then singly house in BioDAQ cages (Research Diets, Inc.; New Brunswick, NJ) and allowed to acclimate to their new environment for 10 days. Baseline measures of body weight, food intake and water intake were taken for one week to balance the groups and create feeding pairs. Each group (n=6 animals/group) averaged 714.47±81.6 g at baseline (Table 3).
(§2) Effects of ASK2131 were compared to a vehicle-treated group, OXT-treated group, as well as a pair-fed control group. Three days of baseline measures were taken before subcutaneous treatment administration began on day 4 of the study. Assessments were made to body weight, food intake and water intake. ASK2131 was administered at 50 nmol/kg throughout the entire study period. […] OXT-treated animals were started at 50 nmol/kg dose for two days, followed by 150 nmol/kg, then 300 nmol/kg, until ending at 600 nmol/kg for the remainder of the study.

[3] = Blood parameters after 22-day treatment of DIO rats; type: in vivo, male Sprague Dawley rats
Description: as §1, §2
Cardiac puncture was used to collect blood for analysis 2 h post final injection. Commercially available enzyme-linked immunosorbent assays (ELISA) were used for quantitative assessment of leptin (cat. #EZRL-83K; MilliporeSigma, Burlington, MA, USA), insulin (cat. #EZRMI-13K; MilliporeSigma, Burlington, MA, USA), and adiponectin (cat. #EZRAPD-62K MilliporeSigma, Burlington, MA, USA). Serum samples were diluted 1:500 for the adiponectin ELISA using the sample diluent provided with the kit. All ELISAs were completed following the manufacturers recommendations. Levels of glucose, cholesterol (total, HDL, and calculated LDL), triglycerides, ALT, and AST were determined in the serum on a Modular P chemistry analyzer (Roche Diagnostics, Risch-Rotkreuz, Switzerland) by the University of Washington Nutrition and Obesity Research Center's Analytic Core (Seattle, WA, USA).

[4] = Pharmacokinetics, iv, rat; type: in vivo
Method: Whole blood samples were immediately centrifuged at 4° C.; separated plasma (~100 μL) was pipetted into micro centrifuge tubes, flash frozen on dry ice, and stored at −80° C. Quantitative analysis plasma samples were performed by Alturas Analytics (Moscow, ID, USA) via peptide extraction from acidified plasma with acetonitrile followed by LC-MS/MS analysis.

[5] = biological target: T2, human V2 receptor (Homo sapiens, UniProt P30518); assay: cAMP production (HTRF) agonist assay at human V2 receptor; type: cell-based; details: stably transfected CHO cells, read-out: hV2R, EC50
T2 construct: expressed in transfected cells; host or cells: CHO
T2 sequence (P30518 whole entry): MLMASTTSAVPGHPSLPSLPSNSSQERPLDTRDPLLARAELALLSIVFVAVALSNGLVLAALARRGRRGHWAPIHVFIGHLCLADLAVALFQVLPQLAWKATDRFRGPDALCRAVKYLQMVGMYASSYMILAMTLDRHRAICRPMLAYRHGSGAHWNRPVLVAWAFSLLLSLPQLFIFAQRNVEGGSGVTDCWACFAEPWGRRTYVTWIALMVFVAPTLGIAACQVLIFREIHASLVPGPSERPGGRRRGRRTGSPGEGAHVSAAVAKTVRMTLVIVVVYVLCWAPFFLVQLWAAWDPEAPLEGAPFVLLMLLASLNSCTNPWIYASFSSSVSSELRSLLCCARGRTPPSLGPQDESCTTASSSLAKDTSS
Method: In Vitro Functional Assay measuring V2R Evaluation of the agonist activity of ASK2131 at the human V2 receptor expressed in stably transfected CHO cells was conducted by measuring its effects on cAMP production using the HTRF detection method. The cells were suspended in HBSS buffer (Invitrogen, Carsbad, CA) complemented with 20 mM HEPES (pH 7.4), 0.010% BSA and 500 μM IBMX, then distributed in microplates at a density of […] cells/well and incubated for 30 min at room temperature in the absence (control) or presence of the test compound or the reference agonist.
For stimulated control measurement, separate assay wells contained 1 nM AVP. Following incubation, the cells were lysed, and the fluorescence acceptor (D2-labeled cAMP) and fluorescence donor (anti-cAMP antibody labeled with europium cryptate) were added. After 60 min at room temperature, the fluorescence transfer was measured at γ ex=337 nm and γ em=620 and 665 nm using a microplate reader (Envision, Perkin Elmer). The cAMP concentration was determined by dividing the signal measured at 665 nm by that measured at 620 nm (ratio).
The results were expressed as a percent of the control response to 1 nM AVP. The standard reference agonist was AVP, which was tested in each experiment at several concentrations to generate a concentration-response curve from which its EC50 value was calculated.

[6] = biological target: T3, human V1a receptor (Homo sapiens, UniProt P37288); assay: Cytosolic Ca2+ mobilization agonist assay at human V1a receptor; type: cell-based; details: stably transfected CHO cells; read-out: hV1aR, EC50
T3 construct: expressed in transfected cells; host or cells: CHO
T3 sequence (P37288 whole entry): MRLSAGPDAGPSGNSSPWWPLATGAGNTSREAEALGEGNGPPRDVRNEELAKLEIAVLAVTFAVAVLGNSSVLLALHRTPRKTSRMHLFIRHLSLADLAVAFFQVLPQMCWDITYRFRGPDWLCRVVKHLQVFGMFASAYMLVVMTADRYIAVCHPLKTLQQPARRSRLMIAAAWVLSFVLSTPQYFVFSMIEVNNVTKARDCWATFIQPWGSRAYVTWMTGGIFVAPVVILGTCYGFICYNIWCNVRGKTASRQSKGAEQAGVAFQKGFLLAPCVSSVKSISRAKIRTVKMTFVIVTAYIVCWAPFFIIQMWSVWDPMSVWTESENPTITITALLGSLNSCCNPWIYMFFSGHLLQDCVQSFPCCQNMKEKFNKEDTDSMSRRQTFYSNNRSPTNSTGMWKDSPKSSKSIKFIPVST
Method: The cells were suspended in DMEM buffer (Invitrogen, Carlsbad, CA) complemented with 0.1% FCSd, then distributed in microplates at a density of 4.5×10^4 cells/well. The fluorescent probe (Fluo4 Direct, Invitrogen, Carlsbad, CA) mixed with probenicid in HBSS buffer (Invitrogen, Carlsbad, CA) complemented with 20 mM HEPES (Invitrogen, Carlsbad, CA) (pH 7.4) was then added into each well and equilibrated with the cells for 60 min at 37° C. then 15 min at 22° C. The assay plates were positioned in a microplate reader (CellLux, PerkinElmer) followed by the addition of the test compound ASK2131, reference agonist or HBSS buffer (basal control), and the measurements of changes in fluorescence intensity which varies proportionally to the free cytosolic Ca^2+ ion concentration. For stimulated control measurements, AVP at 1 μM was added in separate assay wells. The results were expressed as a percent of the control response to 1 μM AVP. The standard reference agonist was AVP, which was tested in each experiment at several concentrations to generate a concentration-response curve from which its EC50 value was calculated.

[7] = serum 2 h post final injection, 22 days sc, mean ± SEM, OXT n=4

## CCCCCCCCCCCCCCCC(=O)NCCOCCOCCOCCOCCOCCOCCOCCOCCC(=O)NCCCC[C@H](NC(=O)CNC(=O)[C@@H]1CCSCCC(=O)N[C@@H](Cc2ccc(O)cc2)C(=O)N[C@@H]([C@@H](C)CC)C(=O)N[C@@H](CCC(N)=O)C(=O)N[C@@H](CC(N)=O)C(=O)N1)C(=O)NCC(N)=O [ASK2131] (YIQN[hCys]GK([PEG8-Palmitoyl])G-NH2; linker N-5 via X1)
[1]
  EC50: 1.1 nM
[1]; ratio of EC50 values
  Ratio OXTR/V2R/: 3.06
[2]
  adverse effects caused by the activation of V2R: No adverse effects caused by the activation of V2R were observed
[3]; 22 days, in words
  glucose, triglyceride, ALT, and AST levels: No significant differences
[3]; [7]
  ALT: 26 ± 2 U/L
  AST: 73 ± 8 U/L
[4]
  T1/2: 2.30 h
  Tmax: 4.00 h
[4]; 4 hours post-dose
  free Cmax: 0.5 nM
[4]; plasma
  half-life: 2.3 h
[4]; plasma, read-out: CLplasma
  clearance: 1.2 mL/min/kg
[4]; plasma, read-out: Tmax
  Tmax: 4 h
[4]; plasma, read-out: Vd, steady-state volume of distribution
  Vd: 0.8 L/kg
[4]; total plasma concentration, 4 hours post-dose
  Cmax at 4 h: 276 nM
[5]
  EC50: 0.36 nM
[6]
  EC50: > 1000 nM
